Source: PubChem BioAssay (NCI)
Where “and” joins values, the source holds several entries; their conditions need not be identical. Equal entries are not always repeated.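 Results reflect a 48-hour exposure of cells in 96-well plates to compound at five concentrations. GI50 = concentration required for 50% inhibition of growth. TGI denotes the concentration required for complete inhibition of growth.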

Assays:
Test in all cases: inhibition of tumour cell growth, NCI panel, 48 h
[1] = tested on: 786-0 renal
[2] = tested on: A549 NSCLC
[3] = tested on: ACHN renal
[4] = tested on: BT-549 breast
[5] = tested on: CAKI-1 renal
[6] = tested on: CCRF-CEM leukemia
[7] = tested on: COLO 205 colon
[8] = tested on: EKVX NSCLC
[9] = tested on: HCC-2998 colon
[10] = tested on: HCT-116 colon
[11] = tested on: HCT-15 colon
[12] = tested on: HL-60(TB) leukemia
[13] = tested on: HOP-62 NSCLC
[14] = tested on: HOP-92 NSCLC
[15] = tested on: K-562 leukemia
[16] = tested on: KM12 colon
[17] = tested on: LOX IMVI melanoma
[18] = tested on: M14 melanoma
[19] = tested on: MALME-3M melanoma
[20] = tested on: MCF7 breast
[21] = tested on: MDA-MB-231 breast
[22] = tested on: MDA-MB-435
[23] = tested on: MDA-N
[24] = tested on: MOLT-4 leukemia
[25] = tested on: NCI-H226 lung
[26] = tested on: NCI-H23 lung
[27] = tested on: NCI-H460 lung
[28] = tested on: NCI-H522 lung
[29] = tested on: NCI/ADR-RES ovarian
[30] = tested on: OVCAR-3 ovarian
[31] = tested on: OVCAR-4 ovarian
[32] = tested on: OVCAR-5 ovarian
[33] = tested on: PC-3 prostate
[34] = tested on: RXF 393 renal
[35] = tested on: SF-268 CNS
[36] = tested on: SF-295 CNS
[37] = tested on: SF-539 CNS
[38] = tested on: SK-MEL-2 melanoma
[39] = tested on: SK-MEL-28 melanoma
[40] = tested on: SK-MEL-5 melanoma
[41] = tested on: SN12C renal
[42] = tested on: SNB-19 CNS
[43] = tested on: SNB-75 CNS
[44] = tested on: SW-620 colon
[45] = tested on: T-47D breast
[46] = tested on: TK-10 renal
[47] = tested on: U251 CNS
[48] = tested on: UACC-257 melanoma
[49] = tested on: UACC-62 melanoma
[50] = tested on: UO-31 renal

How did the GI50 [1] turn out when `CCCCCCCCCCCC[C@H](O)[C@H]1CC[C@H]([C@H](O)CCCC[C@H](O)CCCCC[C@@H](O)CC2=C[C@H](C)OC2=O)O1` was run?
Its GI50 is 18.5 µM.

And the TGI [1]?
The TGI was 34.5 µM.

What about the GI50 [2] of the same molecule?
Its GI50 is 12.4 µM.

And the TGI [2]?
Its TGI is 28.5 µM.

What about the GI50 [3] of the same molecule?
Its GI50 is 11.2 µM.

And the TGI [3]?
Its TGI is 5.5 µM and 23.8 µM.

And the GI50 [4]?
Its GI50 is 12.7 µM.

What about the GI50 [5] of the same molecule?
The GI50 was 17.5 µM.

And the TGI [5]?
The TGI was 36.4 µM.

And the GI50 [6]?
The GI50 was 5.62 µM.

What about the TGI [6] of the same molecule?
The TGI was 27.3 µM.

And the GI50 [7]?
The GI50 was 16.4 µM.

And the TGI [7]?
The TGI was 32.7 µM.

And the GI50 [8]?
The GI50 was 2.5 µM.

And the TGI [8]?
The TGI was 10.9 µM.

And the TGI [9]?
Its TGI is 33.9 µM.

And the GI50 [10]?
Its GI50 is 0.636 µM.

What about the TGI [10] of the same molecule?
Its TGI is 22.7 µM.

What about the GI50 [11] of the same molecule?
Its GI50 is 18.7 µM.

And the TGI [11]?
The TGI was 57.8 µM.

What about the TGI [12] of the same molecule?
The TGI was 8.05 µM.

What about the GI50 [13] of the same molecule?
Its GI50 is 17.5 µM.

And the TGI [13]?
Its TGI is 31.8 µM.

And the GI50 [14]?
The GI50 was 23.7 µM.

What about the TGI [14] of the same molecule?
The TGI was 52.9 µM.

What about the GI50 [15] of the same molecule?
The GI50 was 0.0621 µM.

What about the TGI [15] of the same molecule?
Its TGI is 26.9 µM.

What about the GI50 [16] of the same molecule?
The GI50 was 16.9 µM.

What about the TGI [16] of the same molecule?
The TGI was 35.9 µM.

And the GI50 [17]?
The GI50 was 2.19 µM.

What about the TGI [17] of the same molecule?
The TGI was 3.72 µM and 22.9 µM.

And the GI50 [18]?
The GI50 was 14.2 µM.

And the TGI [18]?
The TGI was 27.4 µM.

What about the TGI [19] of the same molecule?
The TGI was 32.2 µM.

What about the GI50 [20] of the same molecule?
The GI50 was 10.9 µM.

What about the TGI [20] of the same molecule?
Its TGI is 25.4 µM.

What about the GI50 [21] of the same molecule?
Its GI50 is 16.2 µM.

And the TGI [21]?
Its TGI is 40.9 µM.

What about the GI50 [22] of the same molecule?
Its GI50 is 15.6 µM.

What about the TGI [22] of the same molecule?
The TGI was 8.48 µM and 38.8 µM.

And the GI50 [23]?
Its GI50 is 14.3 µM.

What about the TGI [23] of the same molecule?
Its TGI is 30.5 µM.

And the GI50 [24]?
The GI50 was 3.67 µM.

And the TGI [24]?
The TGI was 24.9 µM.

What about the GI50 [25] of the same molecule?
Its GI50 is 17.4 µM.

What about the TGI [25] of the same molecule?
The TGI was 43.3 µM.

And the GI50 [26]?
The GI50 was 0.46 µM.

And the TGI [26]?
Its TGI is 22.2 µM.

What about the GI50 [27] of the same molecule?
The GI50 was 0.986 µM.

And the TGI [27]?
The TGI was 22.9 µM.

And the TGI [28]?
The TGI was 19.7 µM.

And the GI50 [29]?
The GI50 was 14.5 µM.

What about the TGI [29] of the same molecule?
Its TGI is 34.4 µM.

And the GI50 [30]?
Its GI50 is 17.2 µM.

What about the TGI [30] of the same molecule?
Its TGI is 9.34 µM and 32.4 µM.

What about the TGI [31] of the same molecule?
Its TGI is 36.1 µM.

And the TGI [32]?
The TGI was 31.7 µM.

What about the GI50 [33] of the same molecule?
The GI50 was 16.2 µM.

What about the TGI [33] of the same molecule?
Its TGI is 29.8 µM.

And the TGI [34]?
Its TGI is 33.2 µM.

What about the GI50 [35] of the same molecule?
Its GI50 is 17 µM.

And the TGI [35]?
Its TGI is 40.3 µM.

What about the GI50 [36] of the same molecule?
The GI50 was 3 µM.

What about the TGI [36] of the same molecule?
The TGI was 20.1 µM.

What about the TGI [37] of the same molecule?
The TGI was 29.5 µM.

And the GI50 [38]?
Its GI50 is 19.9 µM.

What about the TGI [38] of the same molecule?
The TGI was 36.2 µM.

What about the GI50 [39] of the same molecule?
The GI50 was 20 µM.

And the TGI [39]?
The TGI was 41.2 µM.

What about the GI50 [40] of the same molecule?
Its GI50 is 0.0602 µM.

And the TGI [40]?
Its TGI is 15.6 µM.

What about the GI50 [41] of the same molecule?
The GI50 was 17.8 µM.

What about the TGI [41] of the same molecule?
The TGI was 38.8 µM.

And the GI50 [42]?
Its GI50 is 13.3 µM.

What about the TGI [42] of the same molecule?
The TGI was 27.7 µM.

What about the GI50 [43] of the same molecule?
The GI50 was 16.3 µM.

What about the TGI [43] of the same molecule?
Its TGI is 31.7 µM.

And the GI50 [44]?
The GI50 was 21.6 µM.

And the TGI [44]?
The TGI was 64 µM.

And the GI50 [45]?
The GI50 was 2.82 µM.

And the TGI [45]?
Its TGI is 21.6 µM.

And the GI50 [46]?
Its GI50 is 13.1 µM.

What about the TGI [46] of the same molecule?
The TGI was 26.8 µM.

And the TGI [47]?
Its TGI is over 100 µM.

What about the GI50 [48] of the same molecule?
The GI50 was 1.69 µM.

And the TGI [48]?
The TGI was 5.81 µM and 19 µM.

What about the TGI [49] of the same molecule?
The TGI was 7.17 µM.

What about the GI50 [50] of the same molecule?
Its GI50 is 14.6 µM.

And the TGI [50]?
The TGI was 7.44 µM and 28.8 µM.
